Assay results reported in ChEMBL document CHEMBL1145219, “A new strategy to combat Alzheimer's disease. Combining radical-scavenging potential with metal-protein-attenuating ability in one molecule” (Bioorg Med Chem Lett, 2005).

Tested on: Cell line
Assay: Radical-scavenging potency with metal-protein-attenuating ability in human was determined
Assay type: functional, cell-based

An EC50 (Homo sapiens, Cell line) of 900 nM was found for c1ccc2[nH]c(CN3CCNCCNCC3)nc2c1 in this work.
An EC50 (Homo sapiens, Cell line) of 760 nM was found for c1ccc2[nH]c(CN3CCNCCN(Cc4nc5ccccc5[nH]4)CC3)nc2c1 in this work.
An EC50 (cell line) of 560 nM was found for “N,N0-butylene bis-(2-acetylpyridine iminato) copper(II)” in this work.
An EC50 (cell line) of 11000 nM was found for “N,N0-ethylene bis-(2-acetylpyridine iminato) copper(II)” in this work.
An EC50 (cell line) of 2330 nM was found for “N,N0-propylene bis-(2-acetylpyridine iminato) copper(II)” in this work.
